This is an account of results in publication PMC6485449 (Clinical cancer research : an official journal of the …, 2013).

Several values for one entry are separate records, joined by “and”; a condition that tells them apart may be missing. Identical values can stand only once. Entries after “also recorded” stand apart in the source; their conditions may differ. Like-named read-outs stand apart in the source and are kept apart here. Bounds are passed on as bounds.

Series [1] can be described thus: Liver microsome stability, rat. It counts as in vitro ADME. To be noted: rats, two hours, 1 μM.
Series [2] addresses Poly (ADP-ribose) Glycohydrolase (PARG) (Homo sapiens, UniProt Q86W56). The series is described as follows: PARG activity assay. The series is classed as biochemical. To be noted: concentrations up to 1 μM; data not shown.
For series [3], the system named is Capan-1 (BRCA2 deficient). The series is described as follows: Single-agent cytotoxicity assay, Capan-1. It counts as cell-based, human.
Series [4] deals with MX-1 tumor xenografts. The series is described as follows: Carboplatin combination study, MX-1 xenograft. It counts as in vivo, mice.
Series [5] concerns the target CYP2D6 (Homo sapiens, UniProt P10635). The series is described as follows: CYP450 inhibition, CYP2D6. To be noted: concentrations up to 10 μM; data not shown. The series is classed as in vitro ADME.
The subject of series [6] is MDA-MB-468 xenograft. The series is described as follows: MDA-MB-468 xenograft, single agent. It counts as in vivo, mice.
Series [7] is described as follows: Liver microsome stability, human. The series is classed as in vitro ADME. Particulars: humans, two hours, 1 μM.
Series [8] relates to MX-1 tumor xenografts. Put plainly: Cisplatin combination study, MX-1 xenograft. The series is classed as in vivo, mice.
Series [9] has as its target recombinant human PARP1 (Homo sapiens, UniProt P09874). To be noted: for off-rate / on-rate: immobilized rhPARP1, Biacore T200. For orientation: Surface plasmon resonance follows binding to a sensor surface in real time, without labels.
For series [10], the system named is PC-3 (PTEN deficient). Put plainly: Single-agent 2-D cytotoxicity assay, PC-3. The series is classed as cell-based. Particulars: Homo sapiens, read-out: SF50 PC-3 (PTEN deficient).
Series [11] has as its system MRC-5 (Normal). Put plainly: Single-agent 2-D cytotoxicity assay, MRC-5. The series is classed as cell-based, human.
Series [12] has as its target T1, CYP1A2 (Homo sapiens, UniProt P05177).
T1 sequence (P05177 1-516): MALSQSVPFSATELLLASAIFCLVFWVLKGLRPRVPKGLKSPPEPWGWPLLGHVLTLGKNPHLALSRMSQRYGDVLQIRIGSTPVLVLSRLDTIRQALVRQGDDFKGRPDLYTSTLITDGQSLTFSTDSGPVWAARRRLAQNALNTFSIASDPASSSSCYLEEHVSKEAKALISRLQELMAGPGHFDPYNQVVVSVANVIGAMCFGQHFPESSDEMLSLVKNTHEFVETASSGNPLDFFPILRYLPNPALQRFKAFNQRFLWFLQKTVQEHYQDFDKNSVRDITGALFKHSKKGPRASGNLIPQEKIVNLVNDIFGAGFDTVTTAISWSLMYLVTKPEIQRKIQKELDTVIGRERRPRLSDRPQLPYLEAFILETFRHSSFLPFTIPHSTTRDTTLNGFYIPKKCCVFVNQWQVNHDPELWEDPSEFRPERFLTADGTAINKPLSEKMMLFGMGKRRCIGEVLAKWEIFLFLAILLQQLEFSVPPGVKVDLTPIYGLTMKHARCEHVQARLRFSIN
The series is described as follows: CYP450 inhibition, CYP1A2. Particulars: concentrations up to 10 μM; data not shown. It counts as in vitro ADME.

Series [13] deals with MX-1 tumor xenografts. The series is described as follows: MX-1 xenograft, single agent. The series is classed as in vivo, mice.
Series [14] has as its system MDA-MB-231. The series is described as follows: Single-agent 2-D cytotoxicity assay, MDA-MB-231. The series is classed as cell-based. To be noted: Homo sapiens, MDA-MB-231, read-out: SF50 MDA-MB-231.
The nature of series [15]: Combination with platinum drugs in vitro. To be noted: data not shown. The series is classed as cell-based.
Series [16] in a line: Liver microsome stability, dog. The series is classed as in vitro ADME. To be noted: dogs, two hours, 1 μM. In general terms: Microsomes from liver hold many membrane-bound enzymes, among them those of drug oxidation.
Series [17] concerns MX-1 tumor PAR levels. The series is described as follows: PAR assay in vivo. Also on record: species or system mice.
Series [18] deals with CYP2C19 (Homo sapiens, UniProt P33261). Put plainly: CYP450 inhibition, CYP2C19. It counts as in vitro ADME. To be noted: concentrations up to 10 μM; data not shown.
Series [19] deals with PAR synthesis in LoVo cells. Put plainly: Intracellular PAR formation assay. To be noted: Homo sapiens. It counts as cell-based.
For series [20], the system named is MX-1 cells. Put plainly: SN-38 chemo-sensitization assay. Particulars: MX-1 cells in vitro, 5 days. It counts as cell-based, human.
Series [21] has as its system LoVo cells. Put plainly: Temozolomide potentiation. The series is classed as cell-based, human.
In series [22] the test system is LNCap xenograft. Put plainly: LNCap xenograft, single agent. The series is classed as in vivo, mice. Particulars: 0.33 mg/kg oral QDx28, vs vehicle-treated control.
In series [23] the target is potassium ion channel hERG (Homo sapiens, UniProt Q12809). The series is described as follows: hERG in vitro assay. Particulars: concentrations as high as 100 μM.
Series [24] concerns the target CYP3A4 (Homo sapiens, UniProt P08684). The series is described as follows: CYP450 inhibition, CYP3A4. It counts as in vitro ADME. To be noted: concentrations up to 10 μM; data not shown.
Series [25] concerns the target CYP2C9 (Homo sapiens, UniProt P11712). The series is described as follows: CYP450 inhibition, CYP2C9. To be noted: concentrations up to 10 μM; data not shown. The series is classed as in vitro ADME.
The mark [26] stands for this setting: Homo sapiens, CAPAN-1, read-out: Capan-1 Cytotoxicity IC50.
The mark [27] stands for this setting: Homo sapiens, CAPAN-1, read-out: SF50 Capan-1 (BRCA2 deficient).
Setting [28] is: Homo sapiens, MRC5, read-out: SF50 MRC-5 (Normal).
[29] abbreviates: 2 hours after single oral dose (BMN 673 1 mg/kg; olaparib 100 mg/kg).
[30] abbreviates: 8 hours after single oral dose (BMN 673 1 mg/kg; olaparib 100 mg/kg).
[31] abbreviates: 24 hours after single oral dose (BMN 673 1 mg/kg; olaparib 100 mg/kg).

Chain of recombinant human PARP1 (P09874 662-1011): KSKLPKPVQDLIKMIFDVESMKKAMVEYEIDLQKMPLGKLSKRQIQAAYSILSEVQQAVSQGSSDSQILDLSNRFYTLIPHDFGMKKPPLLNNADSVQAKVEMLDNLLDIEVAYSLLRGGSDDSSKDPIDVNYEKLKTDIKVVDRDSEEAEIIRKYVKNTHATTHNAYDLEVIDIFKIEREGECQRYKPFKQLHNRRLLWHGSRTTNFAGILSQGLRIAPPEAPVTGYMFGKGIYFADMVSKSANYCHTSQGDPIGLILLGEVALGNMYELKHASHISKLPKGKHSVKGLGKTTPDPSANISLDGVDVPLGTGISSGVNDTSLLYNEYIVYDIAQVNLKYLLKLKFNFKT
Chain of potassium ion channel hERG (Q12809 whole entry): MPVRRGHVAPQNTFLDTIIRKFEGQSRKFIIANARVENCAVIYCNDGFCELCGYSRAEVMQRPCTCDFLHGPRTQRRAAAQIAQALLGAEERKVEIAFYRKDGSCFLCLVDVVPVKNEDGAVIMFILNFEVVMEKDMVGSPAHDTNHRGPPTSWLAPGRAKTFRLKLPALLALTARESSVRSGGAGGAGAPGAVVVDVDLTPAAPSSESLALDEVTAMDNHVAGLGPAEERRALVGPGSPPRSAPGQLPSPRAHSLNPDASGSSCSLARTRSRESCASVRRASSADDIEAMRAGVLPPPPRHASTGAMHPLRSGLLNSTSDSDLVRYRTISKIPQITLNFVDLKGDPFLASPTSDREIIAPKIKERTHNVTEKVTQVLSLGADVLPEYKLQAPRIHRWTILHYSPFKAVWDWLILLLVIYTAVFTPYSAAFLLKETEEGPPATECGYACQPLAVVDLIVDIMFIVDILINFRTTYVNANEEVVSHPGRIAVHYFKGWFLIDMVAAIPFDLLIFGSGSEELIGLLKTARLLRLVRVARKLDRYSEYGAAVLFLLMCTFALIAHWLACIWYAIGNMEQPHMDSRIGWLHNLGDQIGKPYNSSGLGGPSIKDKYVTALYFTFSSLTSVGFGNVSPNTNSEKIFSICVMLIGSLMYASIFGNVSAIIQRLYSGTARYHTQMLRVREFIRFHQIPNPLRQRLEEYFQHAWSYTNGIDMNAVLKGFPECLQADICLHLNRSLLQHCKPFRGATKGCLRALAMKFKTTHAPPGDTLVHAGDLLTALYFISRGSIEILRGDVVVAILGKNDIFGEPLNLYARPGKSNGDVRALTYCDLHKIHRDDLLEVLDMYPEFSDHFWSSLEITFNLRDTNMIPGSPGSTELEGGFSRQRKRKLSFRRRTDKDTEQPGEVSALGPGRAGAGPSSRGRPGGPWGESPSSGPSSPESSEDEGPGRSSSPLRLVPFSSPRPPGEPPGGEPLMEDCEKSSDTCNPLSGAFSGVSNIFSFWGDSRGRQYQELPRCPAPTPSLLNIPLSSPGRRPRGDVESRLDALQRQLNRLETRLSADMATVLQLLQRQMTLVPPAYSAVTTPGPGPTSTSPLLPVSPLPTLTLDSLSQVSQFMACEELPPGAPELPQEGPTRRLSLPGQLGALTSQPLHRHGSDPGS
Chain of Poly (ADP-ribose) Glycohydrolase (PARG) (Q86W56 whole entry, species assumed): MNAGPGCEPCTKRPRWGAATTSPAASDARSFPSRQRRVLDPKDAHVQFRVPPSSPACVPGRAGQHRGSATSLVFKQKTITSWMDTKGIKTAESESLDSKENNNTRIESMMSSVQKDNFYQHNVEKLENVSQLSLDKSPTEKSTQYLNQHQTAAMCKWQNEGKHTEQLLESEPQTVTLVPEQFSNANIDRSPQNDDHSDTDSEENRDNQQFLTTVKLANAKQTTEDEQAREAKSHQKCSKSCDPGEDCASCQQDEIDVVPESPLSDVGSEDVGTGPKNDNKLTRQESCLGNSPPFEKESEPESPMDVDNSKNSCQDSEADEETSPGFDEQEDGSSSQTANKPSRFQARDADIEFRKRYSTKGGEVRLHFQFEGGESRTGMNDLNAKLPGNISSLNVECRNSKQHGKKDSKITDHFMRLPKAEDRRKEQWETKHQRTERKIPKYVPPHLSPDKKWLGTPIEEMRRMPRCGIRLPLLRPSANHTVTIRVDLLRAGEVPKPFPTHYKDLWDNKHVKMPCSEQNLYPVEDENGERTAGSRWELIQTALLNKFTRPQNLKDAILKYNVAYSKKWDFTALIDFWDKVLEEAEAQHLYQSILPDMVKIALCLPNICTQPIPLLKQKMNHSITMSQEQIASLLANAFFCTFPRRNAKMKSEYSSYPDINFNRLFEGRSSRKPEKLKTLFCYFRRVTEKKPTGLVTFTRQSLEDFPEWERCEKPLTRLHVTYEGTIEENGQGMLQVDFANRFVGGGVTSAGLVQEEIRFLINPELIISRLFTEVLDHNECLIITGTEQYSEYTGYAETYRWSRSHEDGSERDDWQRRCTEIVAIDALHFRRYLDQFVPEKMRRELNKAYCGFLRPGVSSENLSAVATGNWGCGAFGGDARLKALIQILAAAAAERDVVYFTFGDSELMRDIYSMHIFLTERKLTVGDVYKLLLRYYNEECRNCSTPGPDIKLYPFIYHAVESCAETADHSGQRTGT
Chain of CYP3A4 (P08684 whole entry): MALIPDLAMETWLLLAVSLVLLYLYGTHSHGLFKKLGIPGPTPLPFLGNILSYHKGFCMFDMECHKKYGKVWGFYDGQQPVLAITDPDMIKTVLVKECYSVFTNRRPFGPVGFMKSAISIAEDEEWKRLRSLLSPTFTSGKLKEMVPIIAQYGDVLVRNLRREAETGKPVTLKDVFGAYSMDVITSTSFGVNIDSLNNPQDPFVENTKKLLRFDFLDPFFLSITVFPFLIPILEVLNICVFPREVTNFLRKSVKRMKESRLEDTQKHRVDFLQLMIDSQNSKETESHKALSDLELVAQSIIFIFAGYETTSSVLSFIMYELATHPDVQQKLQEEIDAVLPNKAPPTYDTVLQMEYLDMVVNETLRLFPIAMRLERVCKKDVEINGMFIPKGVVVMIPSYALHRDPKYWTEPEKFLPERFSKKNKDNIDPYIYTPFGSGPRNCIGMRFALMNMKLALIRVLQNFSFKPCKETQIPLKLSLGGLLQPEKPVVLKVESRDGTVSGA
Chain of CYP2D6 (P10635 whole entry): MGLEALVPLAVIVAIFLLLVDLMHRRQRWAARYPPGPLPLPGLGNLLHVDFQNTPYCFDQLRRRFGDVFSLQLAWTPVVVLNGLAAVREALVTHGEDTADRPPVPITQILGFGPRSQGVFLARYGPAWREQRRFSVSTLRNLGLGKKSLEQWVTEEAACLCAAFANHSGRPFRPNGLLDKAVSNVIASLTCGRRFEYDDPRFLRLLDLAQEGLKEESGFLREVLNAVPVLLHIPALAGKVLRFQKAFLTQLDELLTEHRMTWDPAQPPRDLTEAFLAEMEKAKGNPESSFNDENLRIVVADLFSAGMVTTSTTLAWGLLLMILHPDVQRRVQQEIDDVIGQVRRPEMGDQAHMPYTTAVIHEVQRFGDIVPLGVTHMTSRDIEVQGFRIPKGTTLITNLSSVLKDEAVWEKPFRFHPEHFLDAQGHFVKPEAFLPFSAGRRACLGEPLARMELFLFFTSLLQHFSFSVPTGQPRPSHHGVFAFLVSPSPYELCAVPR
Chain of CYP2C9 (P11712 whole entry): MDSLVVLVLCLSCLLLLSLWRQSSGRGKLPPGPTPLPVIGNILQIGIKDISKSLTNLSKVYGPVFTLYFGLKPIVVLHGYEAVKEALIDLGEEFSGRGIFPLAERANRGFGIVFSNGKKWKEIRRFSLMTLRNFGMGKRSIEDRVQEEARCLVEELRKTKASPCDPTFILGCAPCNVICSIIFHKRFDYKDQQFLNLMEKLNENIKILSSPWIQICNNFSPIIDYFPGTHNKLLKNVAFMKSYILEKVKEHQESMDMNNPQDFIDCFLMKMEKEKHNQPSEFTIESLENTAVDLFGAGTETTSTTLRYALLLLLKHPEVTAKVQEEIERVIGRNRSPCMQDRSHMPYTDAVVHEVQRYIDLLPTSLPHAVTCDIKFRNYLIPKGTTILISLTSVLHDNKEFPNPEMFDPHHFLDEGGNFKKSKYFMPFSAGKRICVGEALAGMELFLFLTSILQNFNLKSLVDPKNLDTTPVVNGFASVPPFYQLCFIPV
Chain of CYP2C19 (P33261 whole entry): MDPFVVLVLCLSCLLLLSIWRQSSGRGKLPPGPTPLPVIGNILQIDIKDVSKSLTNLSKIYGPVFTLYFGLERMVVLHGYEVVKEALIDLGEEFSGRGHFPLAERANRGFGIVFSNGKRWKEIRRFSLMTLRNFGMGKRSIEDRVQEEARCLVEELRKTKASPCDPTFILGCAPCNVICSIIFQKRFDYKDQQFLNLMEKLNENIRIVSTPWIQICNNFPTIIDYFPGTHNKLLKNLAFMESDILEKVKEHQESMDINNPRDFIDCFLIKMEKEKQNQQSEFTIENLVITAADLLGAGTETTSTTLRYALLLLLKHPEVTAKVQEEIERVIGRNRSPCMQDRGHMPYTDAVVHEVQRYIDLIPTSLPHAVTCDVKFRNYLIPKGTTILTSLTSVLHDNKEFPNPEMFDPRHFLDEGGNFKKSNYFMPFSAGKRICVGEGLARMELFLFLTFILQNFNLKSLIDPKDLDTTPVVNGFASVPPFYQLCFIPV

As a reminder, the EC50 is the concentration at which the effect is half-maximal. As to `Cn1ncnc1[C@H]1c2n[nH]c(=O)c3cc(F)cc(c23)N[C@@H]1c1ccc(F)cc1` [BMN 673, (8S,9R)-5-fluoro-8-(4-fluorophenyl)-9-(1-methyl-1H-1,2,4-triazol-5-yl)-8,9-dihydro-2H-pyrido[4,3,2-de]phthalazin-3(7H)-one], the “remaining after incubation in liver microsomes” value in series [1], in series [7] and in [16] was “more than 90%” each time. In addition, the “effect on PARG activity” value in series [2] was “no effect”. Also, the IC50 came to 5 nM in series [3] (setting [26]); 5 nM in series [3] (setting [27]); 4 nM in series [10]; 310 nM in [11] (setting [28]); 1850 nM in series [14]; 2.5 nM in [19] (read-out: intracellular PAR formation IC50). Moreover, the “potentiation of carboplatin anti-tumor effect in vivo” value in series [4] (BMN 673 0.33 mg/kg oral once-a-day 5 or 8 days plus carboplatin 35 mg/kg IP) is on record as “significant potentiation”. Besides, the tolerability result in [4] (BMN 673 0.33 mg/kg plus carboplatin 35 mg/kg IP) is “No animal lethality or significant body weight loss”; in series [13] (0.33 mg/kg and 0.1 mg/kg, 28 consecutive once daily oral doses), “well tolerated”. Moreover, the CYP2D6 inhibition result in [5] was “did not inhibit”. The tumor growth delay in [6] (0.33 mg/kg oral QDx28, vs vehicle-treated control) came to 15.9 days; in series [22] it was 22.8 days. The “effectiveness of 0.165 mg/kg/dose BIDx28 vs 0.33 mg/kg/dose QDx28” value in series [6] (MDA-MB-468 xenograft) is listed as “slightly more effective”. The “maximum average weight loss” value in [8] (BMN 673 0.033 mg/kg plus cisplatin 6 mg/kg IP) was determined as 3%; in [8] (BMN 673 0.1 mg/kg plus cisplatin 6 mg/kg IP), 5%; in series [8] (BMN 673 0.33 mg/kg plus cisplatin 6 mg/kg IP), 6%; in series [8] (BMN 673 1 mg/kg plus cisplatin 6 mg/kg IP), 11%. For the same molecule, in [8] (BMN 673 1 mg/kg plus cisplatin, Day 20), the animal deaths result is “One animal died”. Also, the “growth of MX-1 tumor xenografts” value in series [8] (BMN 673 oral once daily days 1-8 plus cisplatin 6 mg/kg IP) was “significantly inhibited in a dose-dependent manner”. For the same molecule, the off-rate in series [9] was determined as 0.000105 s⁻¹. The on-rate in series [9] was 368000 M⁻¹ s⁻¹. Besides, the “dissociation rate, times slower than that of veliparib” value in series [9] (vs veliparib) was roughly 40 times. In [12], the CYP1A2 inhibition entry is listed as “did not inhibit”. The “effect on tumor growth” value in series [13] (0.1 mg/kg oral once daily, after extended treatment (>21 days)) is given as “small effect on tumor growth”. For the same molecule, the “tumor re-establishment after dosing ceased” value in [13] (0.165 mg/kg/dose BID x 28, followed eight weeks after dosing ceased) is on record as “none of the mice had tumor re-growth; also recorded: no re-establishment of tumor”. In addition, the “mice achieving complete response (CR)” value in series [13] (0.165 mg/kg/dose oral BID, 28 days) is “all 6 mice and 6/6”. In addition, the “mice achieving complete response (CR, tumor impalpable)” value in [13] (0.33 mg/kg oral once-a-day, 28 days) is “four CRs out of six”. Besides, the “effect of combining with platinum drugs in vitro” value in [15] is “clearly additive effect”. In addition, the “intratumoral PAR level” value is “drastically decreased” in [17] (setting [29]), “drastically decreased” in series [17] (setting [30]) and “Partial recovery” in [17] (setting [31]). In addition, the CYP2C19 inhibition result in series [18] is listed as “did not inhibit”. The EC50 in series [19] (read-out: Cellular PAR Synthesis EC50) came to 2.5 nM. For the same molecule, the “potentiation of the cytotoxic effect of SN38” value in [20] is listed as “potentiated”. For the same molecule, in series [21] (combined with 200 μM TMZ), the “potentiation of TMZ cytotoxicity” value is “significant potentiation”. Also, the hERG inhibition result in series [23] was “no significant inhibition”. In addition, in series [24], the CYP3A4 inhibition entry was “did not inhibit”. The CYP2C9 inhibition result in [25] is recorded as “did not inhibit”.
On to `C[C@]1(c2nc3c(C(N)=O)cccc3[nH]2)CCCN1` [Veliparib, veliparib], for which the IC50 in series [3] (read-out: Capan-1 Cytotoxicity IC50, single agent, 50% cell survival reduction) was greater than 10000 nM; in series [3] (read-out: SF50 Capan-1 (BRCA2 deficient), 2-D cytotoxicity assay), greater than 10000 nM; in series [11] (read-out: SF50 MRC-5 (Normal), 2-D cytotoxicity assay) it was greater than 10000 nM. In series [9], the off-rate was 0.0041 s⁻¹. The on-rate in series [9] amounted to 1.74e+06 M⁻¹ s⁻¹.
Regarding `O=C(c1cc(Cc2n[nH]c(=O)c3ccccc23)ccc1F)N1CCN(C(=O)C2CC2)CC1` [Olaparib, olaparib], the IC50 in [3] (setting [26]) is 259 nM; in series [3] (setting [27]), 259 nM; in series [10], 787 nM; in series [11] (setting [28]) it was 5830 nM; in series [14], 6410 nM. Besides, the cisplatin sensitizing effect entry in series [8] (olaparib 100 mg/kg oral once-a-day day 1 to 8 plus cisplatin 6 mg/kg) is listed as “equivalent to the lowest dose of BMN 673”. The “maximum body weight loss” value in series [8] (olaparib 100 mg/kg plus cisplatin 6 mg/kg IP) turned out to be 3%. Also, the “intratumoral PAR level” value in series [17] (setting [29]) is recorded as “significant decrease”; in series [17] (setting [30]) it was “partial recovery”; in [17] (setting [31]), “complete recovery”.
A word on the inhibition: it is the drop in the measured response relative to a control, in per cent. As for `Cn1nnc2c(C(N)=O)ncn2c1=O` [TMZ, temozolomide, reference compound], in [21] (Homo sapiens, 120 h, read-out: cell growth inhibition), the inhibition at 200 µM is roughly 15%.
Turning to `CNCc1ccc(-c2[nH]c3cc(F)cc4c3c2CCNC4=O)cc1` [Rucaparib, rucaparib], the results for the IC50 in series [11] (setting [28]) and in [14] were 8530 nM and 5530 nM, respectively.
Take `N.N.[Cl][Pt][Cl]` [cisplatin, reference compound]: in series [8] (cisplatin alone, 6 mg/kg IP), the “maximum average body weight loss” value amounted to 3%.
